The values that follow come from article PMC11767929 (Molecules, 2025).

Holding throughout (assay type): cell-based
Data set [1] relates to NHDF-Neo (normal human dermal fibroblast-neonatal cells). Kind of data set: MTT cytotoxicity assay, NHDF-Neo healthy cells. The conditions noted are these: MTT assay, incubation time 24 h, read-out: IC50 NHDF-Neo. Here is the method:
(§1) Cytotoxicity screening of the obtained glycoconjugates, their potential metabolites, and substrates used for their synthesis was conducted using the MTT assay.
(§2) All cells were kept in a humidified incubator at 37 °C in a 5% CO2 atmosphere.
(§3) Cell viability was assessed by the MTT (3-[4,5–dimethylthiazol-2-yl]-2,5-diphenyltetrazolium bromide) test (ACROS Organics). Stock solutions of tested compounds were prepared in DMSO and stored accordingly.
(§4) Cells treated with glycoconjugates or potential metabolites were incubated for another 24–72 h (depending on the cell line). Subsequently, 50 µL MTT solution (0.5 mg/mL) in RPMI medium without Phenol Red was added to each well. After 3 h of incubation, the MTT solution was removed, and the precipitated formazan was dissolved in 100 µL of DMSO. Finally, the absorbance of the solubilized formazan crystals was measured at the 570 nm wavelength. Each experiment was carried out in three independent iterations with four technical repetitions. […] Cell viability was expressed as:Cell viability (%) = (ODsample − ODblank)/(ODcontrol − ODblank) × 100%.

Data set [2] relates to HCT 116 (human colorectal cancer cell line). Kind of data set: MTT assay in medium with 20 µM CuCl2, HCT 116 cells. The conditions noted are these: addition of CuCl2 at 20 µM; for IC50: Homo sapiens, HCT-116, MTT assay, 24 h, read-out: IC50 HCT 116 + Cu2+; for SI (HCT 116) + Cu2+: ratio of IC50 NHDF-Neo to IC50 HCT 116. Here is the method: (§5) Therefore, it seemed reasonable to conduct additional experiments for the glycoconjugates for which the likely mechanism of action is based on the chelation of metal ions. Since copper can be toxic to cells, it was necessary to test the toxicity of different concentrations of copper salt on the proliferation of all cell line types. Cell cultures under standard conditions were treated with copper solutions of various concentrations, and their effect on cell proliferation was verified by the MTT assay. Cells with the non-supplemented medium were used as a reference for 100% cell viability. […] The antiproliferative activities of 8-AQ glycoconjugates were further tested in the presence of the addition of Cu^2+ ions. HCT 116, MCF-7, and NHDF-Neo cells were treated with solutions of glycoconjugates 13–18 in a culture medium supplemented with 20 µM copper chloride, and their proliferation was measured using the MTT assay. The control consisted of cells cultured in a medium with the same concentration of copper salt added. […] This effect was more pronounced for the MCF-7 cell line (Figure 2). A significant decrease in MCF-7 cell proliferation was observed after treatment with glycoconjugates at concentrations of 100 µM and 50 µM in the presence of Cu^2+ compared to treatment with glycoconjugates alone (cell viability 2–23% and 6–79%, respectively, for each glycoconjugate concentration).
(§6) Cells were seeded in 96-well plates at a concentration of 1 × 10^4 (HCT 116, NHDF-Neo) or 5 × 10^3 (MCF-7) per well. Cell cultures were incubated for 24 h at 37 °C in a humidified atmosphere with 5% CO2. The culture medium was then removed and replaced with 100 µL of the tested compounds solution at varying concentrations (from 25 µM to 200 µM) in the medium with the addition of CuCl2. The final concentration of CuCl2 was 20 µM in each well. Following 24 or 72 h of incubation, the MTT assay was performed to assess cell viability.

For data set [3], the system named is MCF-7 (human breast adenocarcinoma cell line). Kind of data set: MTT assay in medium with 20 µM CuCl2, MCF-7 cells. To be noted: for IC50: Homo sapiens, MCF7, MTT assay, 72 h, read-out: IC50 MCF-7 + Cu2+; for IC50 / SI (MCF-7) + Cu2+: addition of CuCl2 at 20 µM; for increase of cytotoxicity in the presence of Cu(II) ions versus without copper: MCF-7 cells, 20 µM CuCl2; for SI (MCF-7) + Cu2+: ratio of IC50 NHDF-Neo to IC50 MCF-7. Here is the method: as §5, §6

For data set [4], the system named is HCT 116 (human colorectal cancer cell line). Kind of data set: MTT cytotoxicity assay, HCT 116 cells. To be noted: for IC50: MTT assay, incubation time 24 h, read-out: IC50 HCT 116; for SI (HCT 116): selectivity index: ratio of IC50 NHDF-Neo to IC50 HCT 116. Here is the method: as §1, §2, §3, §4
The subject of data set [5] is MCF-7 (human breast adenocarcinoma cell line). Kind of data set: MTT cytotoxicity assay, MCF-7 cells. To be noted: for IC50: Homo sapiens, MCF7, MTT assay, incubation time 72 h, read-out: IC50 MCF-7; for SI (MCF-7): selectivity index: ratio of IC50 NHDF-Neo to IC50 MCF-7. How it is done: as §1, §2, §3, §4
Data set [6] concerns NHDF-Neo (normal human dermal fibroblast-neonatal cells). Kind of data set: MTT assay in medium with 20 µM CuCl2, NHDF-Neo cells. The conditions noted are these: addition of CuCl2 at 20 µM, 24 h, read-out: IC50 NHDF-Neo + Cu2+. How it is done: as §5, §6

Molecules are shown by their SMILES. Some results are limits rather than exact numbers.

Turning to `CC(=O)OC[C@H]1O[C@@H](n2cc(CNc3cccc4cccnc34)nn2)[C@H](OC(C)=O)[C@@H](OC(C)=O)[C@@H]1OC(C)=O` [Compound 13], the half-maximal inhibitory concentration (IC50) in data set [1] was more than 800 µM; in data set [2], 118 ± 5 µM; in data set [3] it was 71.3 ± 4.5 µM; in data set [4] (Homo sapiens, HCT-116, 24 h), more than 800 µM; in data set [5], more than 800 µM. Moreover, in data set [2], the “SI (HCT 116) + Cu2+” value is more than 1.7. In addition, the “increase of cytotoxicity in the presence of Cu(II) ions versus without copper” value (“increase … of Cu(II) ions versus without copper” for short) in data set [3] is reported as “more than ten times”. The “SI (MCF-7) + Cu2+” value in data set [3] is more than 2.8. Also, the CC50 in data set [6] was more than 200 µM.
In the case of `CC(=O)OC[C@H]1O[C@@H](n2cc(CNc3cccc4cccnc34)nn2)[C@H](OC(C)=O)[C@@H](OC(C)=O)[C@H]1OC(C)=O` [Compound 14], the IC50 is more than 800 µM in data set [1]; 87.1 ± 15.9 µM in data set [2]; 34.7 ± 5 µM in data set [3]; 282 ± 20.7 µM in data set [4] (Homo sapiens, HCT-116, 24 h); 204.2 ± 1.4 µM in data set [5]. Moreover, the “increase … of Cu(II) ions versus without copper” value in data set [3] was “approximately six-fold”. Further, the “SI (MCF-7) + Cu2+” value in data set [3] was more than 5.8. Further, the “SI (HCT 116)” value in data set [4] is listed as more than 2.8. Moreover, the “SI (MCF-7)” value in data set [5] was more than 3.9. Further, the CC50 in data set [6] is more than 200 µM.
For the compound `CC(=O)OC[C@H]1O[C@@H](OCCn2cc(CNc3cccc4cccnc34)nn2)[C@H](OC(C)=O)[C@@H](OC(C)=O)[C@@H]1OC(C)=O` [Compound 15], the IC50 in data set [1] is more than 800 µM; in data set [2] it was 80.5 ± 2.2 µM; in data set [3] it was 34.1 ± 5 µM; in data set [4] (Homo sapiens, HCT-116, 24 h) it was 284.2 ± 2.3 µM; in data set [5], 103 ± 5.7 µM. The “SI (HCT 116) + Cu2+” value in data set [2] is given as more than 2.5. In addition, in data set [3], the “SI (MCF-7) + Cu2+” value is reported as more than 5.9. The “SI (HCT 116)” value in data set [4] is listed as more than 2.8. Also, in data set [5], the “SI (MCF-7)” value was more than 7.8. Also, the CC50 in data set [6] was more than 200 µM.
On to `CC(=O)OC[C@H]1O[C@@H](OCCn2cc(CNc3cccc4cccnc34)nn2)[C@H](OC(C)=O)[C@@H](OC(C)=O)[C@H]1OC(C)=O` [Compound 16], for which the IC50 in data set [1] was more than 800 µM; in data set [2] it was 70.8 ± 3.9 µM; in data set [3], 31.8 ± 4.9 µM; in data set [4] (Homo sapiens, HCT-116, 24 h), 227 ± 6.3 µM; in data set [4] it was 290 ± 9.7 µM; in data set [5], 227 ± 6.3 µM. The “SI (HCT 116) + Cu2+” value in data set [2] is more than 2.8. Moreover, the “increase … of Cu(II) ions versus without copper” value in data set [3] was “approximately six-fold”. Further, the “SI (MCF-7) + Cu2+” value in data set [3] is recorded as more than 6.3. For the same compound, the “SI (HCT 116)” value in data set [4] is given as more than 2.7. For the same compound, the CC50 in data set [6] is more than 200 µM.
Take `CC(=O)OC[C@H]1O[C@@H](OCc2cn(CCCNc3cccc4cccnc34)nn2)[C@H](OC(C)=O)[C@@H](OC(C)=O)[C@@H]1OC(C)=O` [Compound 17]: the IC50 in data set [1] was 416 ± 12.4 µM; in data set [2], 71.9 ± 1.7 µM; in data set [3] it was 34.8 ± 0.7 µM; in data set [4] (Homo sapiens, HCT-116, 24 h), 116 ± 5.9 µM; in data set [5], 78.1 ± 9.3 µM. Moreover, in data set [2], the “SI (HCT 116) + Cu2+” value is recorded as more than 2.8. The “SI (MCF-7) + Cu2+” value in data set [3] is listed as more than 5.7. Further, in data set [4], the “SI (HCT 116)” value is 3.6. Besides, the “SI (MCF-7)” value in data set [5] is recorded as 5.3. The CC50 in data set [6] was more than 200 µM.
Consider `CC(=O)OC[C@H]1O[C@@H](OCc2cn(CCCNc3cccc4cccnc34)nn2)[C@H](OC(C)=O)[C@@H](OC(C)=O)[C@H]1OC(C)=O` [Compound 18], for which the half-maximal inhibitory concentration (IC50) amounted to 585 ± 7.1 µM in data set [1]; 43.4 ± 2.4 µM in data set [2]; 35.4 ± 0.1 µM in data set [3]; 182 ± 15.6 µM in data set [4] (Homo sapiens, HCT-116, 24 h); 96.8 ± 6 µM in data set [5]. Further, the “SI (HCT 116) + Cu2+” value in data set [2] was more than 4.6. In addition, in data set [3], the “SI (MCF-7) + Cu2+” value was more than 5.6. In addition, the “SI (HCT 116)” value in data set [4] is on record as 3.2. Also, the “SI (MCF-7)” value in data set [5] is 6.0. Also, the CC50 in data set [6] was more than 200 µM.
As for `OCCn1cc(COc2cccc3cccnc23)nn1` [Compound 19a, reference compound], the 50% inhibitory concentration (IC50) in data set [1] was more than 800 µM; in data set [4] (Homo sapiens, HCT-116, 24 h), more than 800 µM; in data set [5], more than 800 µM.
Regarding `OCc1cn(CCCNc2cccc3cccnc23)nn1` [Compound 20, 4-Hydroxymethyl-1-(8-quinolinylaminopropyl)-1H-1,2,3-triazol], the IC50 in data set [1] was more than 800 µM; in data set [4] (Homo sapiens, HCT-116, 24 h), 329 ± 5.4 µM; in data set [5], 150 ± 1.8 µM. For the same compound, the “SI (HCT 116)” value in data set [4] is more than 2.4. Also, the “SI (MCF-7)” value in data set [5] was more than 5.3.
Regarding `OCc1cn(CCCOc2cccc3cccnc23)nn1` [Compound 20a, reference compound], the IC50 in data set [1] was more than 800 µM; in data set [4] (Homo sapiens, HCT-116, 24 h), more than 800 µM; in data set [5], 602.9 ± 1.9 µM. Further, in data set [5], the “SI (MCF-7)” value is on record as more than 1.3.
